According to PMC5340297 (Bioorganic & medicinal chemistry letters, 2016):

Columns and labels:
[1] = molecular target: T1, rM4 (Rattus norvegicus, UniProt P08485); assay: Calcium mobilization assay with rM4/Gqi5-CHO cells, EC20 acetylcholine; type: cell-based; details: 9a vs 6
T1 sequence (P08485 1-478): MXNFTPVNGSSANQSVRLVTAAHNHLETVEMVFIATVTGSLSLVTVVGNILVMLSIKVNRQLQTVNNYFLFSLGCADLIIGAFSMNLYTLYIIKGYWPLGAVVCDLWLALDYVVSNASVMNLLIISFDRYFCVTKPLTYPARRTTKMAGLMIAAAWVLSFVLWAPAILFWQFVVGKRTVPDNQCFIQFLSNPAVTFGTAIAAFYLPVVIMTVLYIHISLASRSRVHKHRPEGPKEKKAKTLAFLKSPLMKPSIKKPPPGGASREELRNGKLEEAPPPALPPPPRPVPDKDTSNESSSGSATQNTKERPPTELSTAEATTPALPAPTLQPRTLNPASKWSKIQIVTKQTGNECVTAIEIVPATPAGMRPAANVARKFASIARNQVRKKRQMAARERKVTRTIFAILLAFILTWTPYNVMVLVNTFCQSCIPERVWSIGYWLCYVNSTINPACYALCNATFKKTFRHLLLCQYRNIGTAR

[2] = Rat brain:plasma partition coefficients; type: in vivo; details: 0.25 hr after IV cassette dose (0.20-0.25 mg/kg), male SD rat, n=1
[3] = molecular target: Cytochrome P450 2D6 (Homo sapiens, UniProt P10635); assay: Cytochrome P450 inhibition, 2D6; type: in vitro ADME
Chain of Cytochrome P450 2D6 (P10635 whole entry): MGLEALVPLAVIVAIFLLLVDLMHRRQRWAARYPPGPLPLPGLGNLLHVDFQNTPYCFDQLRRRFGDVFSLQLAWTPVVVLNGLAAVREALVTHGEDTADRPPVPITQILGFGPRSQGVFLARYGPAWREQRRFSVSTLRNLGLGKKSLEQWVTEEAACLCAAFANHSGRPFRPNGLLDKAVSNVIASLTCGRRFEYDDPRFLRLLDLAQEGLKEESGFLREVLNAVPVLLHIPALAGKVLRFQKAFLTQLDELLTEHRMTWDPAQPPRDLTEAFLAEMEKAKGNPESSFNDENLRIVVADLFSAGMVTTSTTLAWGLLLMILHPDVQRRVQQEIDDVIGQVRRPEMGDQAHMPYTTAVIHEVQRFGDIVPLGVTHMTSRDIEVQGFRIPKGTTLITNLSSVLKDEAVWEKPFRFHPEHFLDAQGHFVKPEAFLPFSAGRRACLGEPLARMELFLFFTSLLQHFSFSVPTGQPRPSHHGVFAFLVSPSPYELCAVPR

[4] = tested on: rat M1-3,5; assay: Muscarinic subtype selectivity, rat M1-3,5; type: cell-based; details: read-out: EC50 at rat M1-3,5; no activity
[5] = tested on: human M1-3,5; assay: Muscarinic subtype selectivity, human M1-3,5; type: cell-based; details: read-out: EC50 at human M1-3,5; no activity
[6] = tested on: 68 GPCRs, ion channels and transporter; assay: Eurofin Lead Profiling radioligand binding panel; details: 10 μM
[7] = molecular target: hCav1 2 (Homo sapiens, UniProt Q13936); assay: Off-target full CRC, hCav1 2; type: binding
[8] = molecular target: DAT (Homo sapiens, UniProt Q01959); assay: Off-target full CRC, DAT; type: binding
Chain of DAT (Q01959 whole entry, species assumed): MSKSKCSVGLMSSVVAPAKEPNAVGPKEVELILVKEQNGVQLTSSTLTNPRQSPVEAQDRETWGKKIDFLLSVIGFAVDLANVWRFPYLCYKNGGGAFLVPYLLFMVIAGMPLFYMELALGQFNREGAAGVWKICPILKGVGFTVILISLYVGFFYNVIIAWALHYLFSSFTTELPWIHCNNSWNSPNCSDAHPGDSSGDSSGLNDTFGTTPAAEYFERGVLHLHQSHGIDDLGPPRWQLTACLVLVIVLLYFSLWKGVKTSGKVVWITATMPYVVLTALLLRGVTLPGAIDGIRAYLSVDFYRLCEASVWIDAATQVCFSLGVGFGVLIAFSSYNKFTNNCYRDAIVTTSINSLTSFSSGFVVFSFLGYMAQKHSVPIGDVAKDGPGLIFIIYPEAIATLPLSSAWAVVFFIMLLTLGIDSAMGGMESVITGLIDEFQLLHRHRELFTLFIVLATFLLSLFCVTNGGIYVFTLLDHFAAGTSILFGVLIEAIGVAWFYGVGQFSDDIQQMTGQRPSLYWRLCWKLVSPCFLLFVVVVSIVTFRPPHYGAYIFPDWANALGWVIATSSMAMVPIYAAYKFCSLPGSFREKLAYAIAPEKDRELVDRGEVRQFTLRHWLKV

[9] = molecular target: SERT (Homo sapiens, UniProt P31645); assay: Off-target full CRC, SERT; type: binding
Chain of SERT (P31645 whole entry, species assumed): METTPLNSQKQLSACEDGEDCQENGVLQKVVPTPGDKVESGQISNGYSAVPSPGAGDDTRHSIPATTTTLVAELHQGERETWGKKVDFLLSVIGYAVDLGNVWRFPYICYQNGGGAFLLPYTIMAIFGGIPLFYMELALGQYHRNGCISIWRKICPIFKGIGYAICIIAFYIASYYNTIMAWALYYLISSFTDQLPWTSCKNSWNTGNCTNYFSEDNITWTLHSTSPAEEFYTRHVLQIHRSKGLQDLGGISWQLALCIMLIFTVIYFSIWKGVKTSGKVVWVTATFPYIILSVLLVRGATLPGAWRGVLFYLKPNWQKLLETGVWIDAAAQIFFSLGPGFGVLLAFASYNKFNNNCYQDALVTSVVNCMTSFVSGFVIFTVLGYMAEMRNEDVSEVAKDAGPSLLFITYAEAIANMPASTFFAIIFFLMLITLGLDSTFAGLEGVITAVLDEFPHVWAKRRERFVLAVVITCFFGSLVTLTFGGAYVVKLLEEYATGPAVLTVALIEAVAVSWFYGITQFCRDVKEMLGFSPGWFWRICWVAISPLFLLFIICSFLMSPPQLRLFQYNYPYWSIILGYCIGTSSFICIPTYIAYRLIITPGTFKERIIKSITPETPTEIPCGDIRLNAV

[10] = molecular target: T2, 5-HT3 (Homo sapiens, UniProt P46098); assay: Off-target full CRC, 5-HT3; type: binding
T2 sequence (P46098 24-478): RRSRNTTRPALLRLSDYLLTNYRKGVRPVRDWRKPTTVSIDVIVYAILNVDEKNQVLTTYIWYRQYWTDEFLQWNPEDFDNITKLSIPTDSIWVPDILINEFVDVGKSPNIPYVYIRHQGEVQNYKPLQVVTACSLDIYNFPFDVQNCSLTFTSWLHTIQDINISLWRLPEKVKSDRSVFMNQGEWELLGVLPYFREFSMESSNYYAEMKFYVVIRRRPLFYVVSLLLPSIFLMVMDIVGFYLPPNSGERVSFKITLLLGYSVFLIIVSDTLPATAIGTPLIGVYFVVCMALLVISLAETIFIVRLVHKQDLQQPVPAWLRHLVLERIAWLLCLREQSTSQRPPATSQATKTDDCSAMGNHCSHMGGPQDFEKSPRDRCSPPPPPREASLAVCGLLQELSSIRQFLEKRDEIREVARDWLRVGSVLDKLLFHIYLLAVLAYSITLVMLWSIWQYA

[11] = tested on: amphetamine-induced hyperlocomotion; details: rat, 0.75 mg/kg amphetamine s.c., n = 7-8 per dose group
[12] = In vitro clearance, rat; details: predicted
[13] = In vitro clearance, human; details: predicted
[14] = molecular target: Ghrelin receptor (Homo sapiens, UniProt Q92847); assay: Off-target full CRC, Ghrelin receptor; type: binding
Chain of Ghrelin receptor (Q92847 whole entry, species assumed): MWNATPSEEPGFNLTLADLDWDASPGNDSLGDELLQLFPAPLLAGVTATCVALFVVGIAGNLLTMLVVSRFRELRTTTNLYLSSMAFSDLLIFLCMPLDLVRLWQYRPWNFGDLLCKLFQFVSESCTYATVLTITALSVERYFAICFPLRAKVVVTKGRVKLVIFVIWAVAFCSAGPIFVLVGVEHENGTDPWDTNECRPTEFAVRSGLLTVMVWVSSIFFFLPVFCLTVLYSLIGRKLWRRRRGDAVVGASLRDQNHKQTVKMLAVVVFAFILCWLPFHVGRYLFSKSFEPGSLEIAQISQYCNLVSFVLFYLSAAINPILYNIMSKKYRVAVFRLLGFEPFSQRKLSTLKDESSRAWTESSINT

[15] = tested on: BDZ; assay: Off-target full CRC, BDZ; type: binding
[16] = tested on: GABA; assay: Off-target full CRC, GABA; type: binding
[17] = tested on: amphetamine-induced hyperlocomotion; details: cited from earlier work
[18] = tested on: M4; assay: M4 PAM potency, 6 compared with 2; type: cell-based; details: 6 vs 2
[19] = Free fraction, 6 compared with 2; type: in vitro ADME; details: 6 vs 2

| SMILES | Inhibition of CYP 2D6 (in words) [3] | EC50 [4] [µM] | EC50 [5] [µM] | % inhibition at multiple off-targets in the Eurofin panel [6] [%] | DAT ligand potency (full CRC) [8] [µM] | SERT ligand potency (full CRC) [9] [µM] | 5-HT3 ligand potency (full CRC) [10] [µM] | Full dose response AHL, result in words [11] | CLHEP, rat [12] [mL/min/kg] | CLHEP, human [13] [mL/min/kg] | further results |
| --- | --- | --- | --- | --- | --- | --- | --- | --- | --- | --- | --- |
| CSc1ccc(CNC(=O)c2sc3nnc(C)c(C)c3c2N)cc1 [9a] |  |  |  |  |  |  |  |  |  |  | Fold increase in rat M4 PAM potency relative to 6 [1]: ~10 fold |
| Cc1nnc2sc(C(=O)NCc3ccc(S(=O)(=O)CF)cc3)c(N)c2c1C [9i] |  |  |  |  |  |  |  |  |  |  | Rat Kp (total brain:plasma partition coefficient) [2]: not detected in the CNS |
| Cc1nnc2sc(C(=O)NCc3ccc(S(=O)(=O)C(F)F)cc3)c(N)c2c1C [9j] | weak inhibition | > 30 | > 30 | > 50 | 0.175 | 0.6 | 1.6 | efficacious in vivo | 28.1 | 9.34 | hCav1 2 ligand potency (full CRC) [7]: 5.7 µM |
| Cc1nnc2sc(C(=O)NCc3ccc(S(F)(F)(F)(F)F)cc3)c(N)c2c1C [9l] | weak inhibition | > 30 | > 30 | > 50 | 0.15 | 0.52 | 1.5 | efficacious in vivo | 40.5 | 15.0 | Ghrelin receptor ligand potency (full CRC) [14]: 6.5 µM; BDZ ligand potency (full CRC) [15]: 1.5 µM; GABA ligand potency (full CRC) [16]: 2.1 µM |
| Cc1nnc2sc(C(=O)NCc3ccc(S(=O)(=O)C(F)(F)F)cc3)c(N)c2c1C [compound 5] |  | > 30 | > 30 |  |  |  |  |  | 28.4 | 10.2 | % inhibition at any of the 68 targets in the Eurofin panel [6]: ≤ 50%; % reversal in AHL (previously reported) ([17]; 10 mg/kg p.o.): 46%; Minimum effective dose (MED) in AHL ([17]; p.o.): 3 mg/kg |
| COc1ccc(CNC(=O)c2sc3nnc(C)c(C)c3c2N)cc1 [compound 6] |  |  |  |  |  |  |  |  |  |  | Fold enhancement of M4 PAM potency relative to 2 [18]: 4 fold; Fold increase of free fraction relative to 2 [19]: up to 9 fold |
